The test system of data set [1] is isolated rabbit hearts. Description: Limitation of infarct size in isolated buffer-perfused rabbit hearts, drug at reperfusion. The method, then:
The quantification of infarct size and experimental design followed the protocol described by Zhang et al., J Cardiovasc Pharmacol 42, 2003.
Hearts were quickly removed from anesthetized rabbits and perfused with Krebs buffer. […] The risk zone was stained with fluorescent microspheres, then the heart was sliced into 2 mm sections and the infarct size was visualized by tetrazolium staining. The drug was mixed with the perfusate at 50 μg/L starting 5 min prior to reperfusion and continuing for 55 min. […] Ischemic preconditioning is the most powerful cardioprotective intervention known but of no practical value clinically.

Data set [2] in a line: Tolerability when given intravenously. The class given is in vivo.
For data set [3], the system named is rabbit hearts (in vivo). The data set can be described thus: Limitation of infarct size in rabbit hearts in vivo (open-chest rabbits), drug at reperfusion. Details: species or system New Zealand White rabbits. The protocol:
Rabbits (New Zealand White rabbits of either sex weighing 1.6 to 3.0 kg) were anesthetized with sodium pentobarbital (30 mg/kg) which was subsequently supplemented as needed. Positive pressure ventilation with 100% oxygen was instituted. The heart was exposed through a left thoracotomy and a ligature was passed under a coronary branch to create the ischemia. Drug was given intravenously in a dose of 10 μg/kg over 1 min starting 5 min prior to reperfusion and again 15 min after reperfusion. The heart was removed after 3 hr of reperfusion. The risk zone was stained with fluorescent microspheres, then the heart was sliced into 2 mm sections and the infarct size was determined by tetrazolium staining.
Postconditioning is an established cardioprotective intervention where the occluded artery is intermittently opened and closed for four 30-second cycles at the end of the ischemic insult.

Entries after “also recorded” stand apart in the source; their conditions may differ.

As to `N#Cc1c(N)nc(SCC(N)=O)c(C#N)c1-c1ccc(O)cc1` [Compound A, 2-{[6-Amino-3,5-dicyano-4-(4-hydroxyphenyl)pyridin-2-yl]thio}acetamide], the “reduction of infarct size” value in data set [1] (50 μg/L in perfusate from 5 min prior to reperfusion for 55 min, 30 min ischemia, 2 hr reperfusion) is recorded as around 50%. Further, in data set [1] (50 μg/L, IPC = 5 min ischemia and 10 min reperfusion), the “protection compared with ischemic preconditioning (IPC)” value is “not as protective as ischemic preconditioning”. The “infarct size in % of risk area, untreated hearts in comparison to treated hearts” value in data set [1] (50 μg/L, p=0.032) was “significantly larger”.
As to `N#Cc1c(N)nc(SCC(N)=O)c(C#N)c1-c1ccc(OCC2CC2)cc1` [Compound B, 2-({6-Amino-3,5-dicyano-4-[4-(cyclopropylmethoxy)phenyl]pyridin-2-yl}thio)acetamide], the tolerability result in data set [2] is “well tolerated”. Moreover, in data set [3] (10 μg/kg i.v. 5 min prior to and 15 min after reperfusion), the “infarct size limitation compared with postconditioning” value is on record as “equivalent to postconditioning in its potency; also recorded: as effective as postconditioning”. Also, the “reduction of infarct size” value in data set [3] (10 μg/kg i.v. 5 min prior to and 15 min after reperfusion, 30 min regional ischemia, 3 hr reperfusion) was above 50%. In addition, the adverse hemodynamic effects result in data set [3] (10 μg/kg i.v., open-chest rabbits) is “No adverse hemodynamic effects”.

The values above are taken from patent US20090221649A1, “Use of substituted 2-thio-3,5-dicyano-4-phenyl-6-aminopyridines for the treatment of reperfusion injury and reperfusion damage” (Bayer HealthCare AG, priority 2005, published 2009).
